The subject of experiment [1] is hPSC-derived neural tube (neural folding morphogenesis). Briefly: Modeling neural tube defects in the stem-cell derived neural tube morphogenesis system. Type of experiment: cell-based, human. As to conditions: for neural apical curvature / neural tissue morphology (thickness, hinges): treated samples vs control samples, ROCK inhibitor 10 μM day 5-8. As for the experimental part:
Because animal models are limited in their capacity to explain how human genetics affects neural tube closure, it was tested whether the reproducible human stem-cell system could be used to model neural tube defects (NTDs). This example focuses on various compounds that induce NTDs: ROCK inhibitor, novobiocin, and valproic acid (FIG. 24). […] In turn, ROCK upregulates apical actomyosin contractility in neural cells which leads to apical constriction of the neural plate. Neural plate contraction then drives neural folding. It was thus set out to determine whether apical contractility plays a role during in vitro neural folding. […] The formation of an actomyosin gradient is followed by apical neural contraction which leads to folding.
To perturb ROCK/Shroom3 signaling and apical neural contractility a highly specific molecular inhibitor of ROCK (Y-27632) was applied. […] The effects of novobiocin and valproic acid were also examined. […] It was further concluded that the in vitro lumen model system is suitable for studying how abnormalities in signaling pathways lead to neural tube defects in a human genetic context.
Day 1. Seeding onto micropatterns. hPSCs are released from well-plate surfaces using non-enzymatic agitation following manufacturer's instructions (ReleSR, STEMCELL Technologies, Cambridge, MA). Cells are resuspended as a single-cell suspension at densities of 750K-1M cells/mL in mTeSR1 containing 10 μM ROCK inhibitor Y27632 (Abcam, Cambridge, UK). 200 μL of cell suspension is then pipetted onto prepatterned dishes and allowed to settle for 15 minutes before adding 1 mL of mTeSR1 and allowing cells to settle for 10 additional minutes. Excess media is aspirated, leaving enough liquid to cover patterns and replaced with fresh 2 mL of mTeSR until the following day.
Day 2. Matrigel addition. mTESR1 media is exchanged with a neural induction media containing Matrigel (4%, v/v). Neural induction media is supplemented with 5 μM of TGFβ-inhibitor SB-431542.
Day 3-4. Lumen Formation. Dishes are left unperturbed at day 3 to allow transition into 3D stem-cell tissue containing a single lumen.
Day 5-9. Exposure to Morphogens. Neural induction media is supplemented with 5 ng/ml BMP4 in addition to 5 μM of SB-431542. Media is exchanged daily. Cell fates are observed on day 6 and folding is observed during days 7-9.
All samples were fixed, immunostained and imaged as whole mounts in the culture dish. Samples are fixed in 4% PFA, 1 hr at room temperature (RT), washed three times for 15 min in PBS, and permeabilized in 1.5% Triton-PBS over-night (o/n) at 4 C. The following day, samples are washed in 0.3% Triton, and blocked for 2 hrs RT (10% NGS, 1% BSA, 0.3% Triton-X in PBS). Primary antibodies are used at 1:100-1:200 in blocking solution o/n at 4° C. Next, samples are washed in 0.1% Tween in PBS, and incubated with secondary antibodies 1:500-1:1000 in PBT o/n at 4° C. DAPI and phalloidin are also added at this stage. Finally, samples are washed in PBS for 1 hr, and imaged.
ROCK inhibition is achieved using the small molecule Y-27632 reconstituted in water at a stock concentration of 10 mM. ROCK inhibitor was applied at a concentration of 10 μM (1:1000 dilution) at day 5, together with BMP, and maintained for 72 hrs until the end of the experiment at day 8. Media was changed daily. Control experiments were carried under identical conditions, adding water instead of ROCK inhibitor.

For experiment [2], the system named is 3D hPSC. The experiment is described as follows: BMP4 exposure of micropatterned 3D hPSC without neural induction (immunostaining, qPCR). In kind it is cell-based, human. From the text:
FIG. 9 provides a schematic representing in vitro morphogenesis in three differentiation protocols in accordance with embodiments. (i) Exposure to BMP, without neural induction, results in an amnion-like tissue containing cells from three germ layers without formation of a neural fold. (ii) Neural tube morphogenesis is observed when neural induction is followed by exposure to BMP4. (iii) Homogenous expression of forebrain markers is observed under exposure to neural induction without BMP.
FIG. 10 provides a schematic and results of the experimental timeline for three protocols detailed in FIG. 9. (B) Experimental timeline for the three protocols. Neural induction media includes N2 supplement and TGFβ inhibitor SB-431542 (SB). (C) Vertical sections of immunostained samples from the three differentiation protocols.
FIG. 19 provides a schematic, images, and bar graph of cellular differentiation in the absences of neural induction in which no neural folding is observed, in accordance with embodiments. (A) Experimental timeline for BMP4 exposure without neural induction. (B) Bright field images showing development over 3 days. At day 4, cells migrate away from the micropatterned area. (C) Horizonal and (D) vertical sections of samples at day 3. Micropattern diameter is indicated in microns. Cells close to the glass express mesendoderm markers Brachyury (BRA) and SOX17. In 450 μm patterns, SOX2 is observed at the center of the tissue. Cells at the colony edges and at the top express amniotic ectoderm marker CDX2. A single lumen is maintained and no spontaneous folding is observed. (E) qPCR analysis for differentiation markers as a function of BMP concentration. BMP results in upregulation of the WNT and NODAL pathways, upregulation of mesendoderm markers EOMES/Brachyury/SOX17, amniotic ectoderm marker GATA3, downregulation of ectoderm marker SOX2 and pluripotency marker NANOG. Scale bar 50 μm unless indicated otherwise.
The system was next applied to study which tissues contribute to neural folding. This question has been studied for over a century in animal models, and multiple hypothesis have been developed regarding the mechanical role of the neural tissue, neighboring surface ectoderm and underlying mesoderm. However, the limited accessibility in utero led to inconclusive and often contradictive results. The in vitro system allows to systemically control tissue composition through the choice of small molecules in the culture media (FIGS. 9 & 10). This system allows discernment of the tissues which are necessary and sufficient for neural tube morphogens. […] Mesoderm fates are suppressed by TGFβ inhibition, and only appear if the period of TGFβ inhibition is decreased (FIG. 17). […] It was next examined whether the non-neural ectoderm is required for folding. […]

Setting [3] is: ROCK inhibition, Y-27632 10 μM day 5-8, vs control.
Setting [4] is: as a function of BMP concentration, no neural induction.

`C[C@@H](N)[C@H]1CC[C@H](C(=O)Nc2ccncc2)CC1` [Y-27632]: in experiment [1] (setting [3]), the “Shroom3 and F-actin localization to the apical neural surface” value was “disrupted”; the “actin localization to the basal surface of epidermal/neural tissues and the epidermal apical surface” value is “not significantly perturbed”. The neural folding morphology entry in experiment [1] (Y-27632 10 μM applied at day 5 together with BMP, maintained 72 hrs until day 8, vs control (water)) was “severe folding defects similar to the open book morphology observed in embryonic cranial NTDs”. In addition, in experiment [1], the neural apical curvature result is recorded as “significantly less curved than control samples”; the “neural tissue morphology (thickness, hinges)” value (“neural tissue morphology” for short) is “thick and flat neural tissue, which lacks neural hinges”.
For the molecule `CO[C@@H]1[C@@H](OC(N)=O)[C@@H](O)[C@H](Oc2ccc3c(O)c(NC(=O)c4ccc(O)c(CC=C(C)C)c4)c(=O)oc3c2C)OC1(C)C` [novobiocin], in experiment [1], the neural apical curvature entry is “significantly less curved than control samples”; the “neural tissue morphology” value was “thick and flat neural tissue, which lacks neural hinges”.
As for `CCCC(CCC)C(=O)O` [valproic acid], in experiment [1], the neural apical curvature result is listed as “significantly less curved than control samples”; the “neural tissue morphology” value was “thick and flat neural tissue, which lacks neural hinges”.
Regarding “BMP4: bone morphogenetic protein 4, morphogen”, the “cell fates and folding morphogenesis” value in experiment [2] (addition of BMP4 without neural induction) was “mesoderm and ectoderm cell fates, but lack neural tissue and does not exhibit folding”. Further, in experiment [2] (setting [4]), the “qPCR: WNT and NODAL pathways” value is given as “upregulation”; the “qPCR: ectoderm marker SOX2 and pluripotency marker NANOG” value is reported as “downregulation”; the “qPCR: mesendoderm markers EOMES/Brachyury/SOX17, amniotic ectoderm marker GATA3” value is reported as “upregulation”.

Source of the values: patent publication US20240287430A1, “Systems and Methods for Cellular Lumen Formation and Cellular Differentiation” (The Regents of the University of California, priority 2021, published 2024).
